Inconclusive results are not listed. Calls of active or inactive are those of the source.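 The calls were made as follows: active = compounds lowering the luciferase signal with a fitted half-maximal dose at most twice their top valid dose (cut at about 30 µM in these data); inconclusive = flat fits with moderate signal loss, or poor fits; inactive = the rest.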
test system: Clone20 osteoblast Shn3 3'UTR firefly luciferase, 24 h; test: Shn3 3'UTR reporter inhibitors, dose response, cell-based, Clone20 osteoblasts, luminescence, dry powder, set 2 (AID 743417)

Compound	AC50
O=C(/C=C/Nc1ccccc1Br)c1ccccn1	1.8 µM
Oc1c(CN2CCCCC2)ccc2cccnc12	2.11 µM
CCCCN1CC(COCc2ccccc2)Oc2cccc(Oc3ccc(C(C)C)cc3)c2S1(=O)=O (stereo unspecified)	5.03 µM
NC(=O)CC(NC(=O)c1ccccc1)c1ccc(N2CCC(Cc3ccccc3)CC2)c([N+](=O)[O-])c1 (stereo unspecified)	2.61 µM
CN(C)CCN1C(=O)c2cccc3cc([N+](=O)[O-])cc(c23)C1=O	1.11 µM
CN(C)S(=O)(=O)c1ccc(Oc2ccc(S(=O)(=O)N(C)C)cc2)cc1	3.04 µM
Cc1cccc2sc(NNC(=O)c3ccc(S(=O)(=O)N4CC(C)CC(C)C4)cc3)nc12 (stereo unspecified)	2.57 µM
O=C(NNC(=O)c1cccc(S(=O)(=O)N2CCc3ccccc32)c1)c1ccccc1	1.52 µM
N=C1S/C(=C\c2ccc(-c3cccc(Cl)c3)o2)C(=O)N1c1nccs1	2.82 µM
C[C@@H]1COC(=O)[C@@H](NC(=O)OCC2c3ccccc3-c3ccccc32)C/C=C\C[C@@H](CC(=O)N(CCO)Cc2ccccc2)C(=O)N1	1.89 µM
O=C(Nc1nc(-c2ccccn2)cs1)c1cccc(S(=O)(=O)N2CCOCC2)c1	1.52 µM
COc1ccc(-c2noc(CCC(=O)NCCCN3CCC(Cc4ccccc4)CC3)n2)cc1	4.03 µM
Cn1c(=O)n(C)c2cc([N+](=O)[O-])c(N3CCN(S(=O)(=O)c4ccc(C(C)(C)C)cc4)CC3)cc21	3.53 µM
CCC(=O)c1ccc(OCC(O)Cn2c(C)nc3ccccc32)cc1 (stereo unspecified)	2.28 µM
CC(C)n1c(/C=C/[C@@H](O)C[C@@H](O)CC(=O)O)c(-c2ccc(F)cc2)c2ccccc21	2.4 µM
CC(O)(c1ccncc1)c1nc(-c2cccc(C(F)(F)F)c2)cs1 (stereo unspecified)	5.34 µM
COc1ccc(C(=O)C(C)OC(=O)c2cccc(S(=O)(=O)Nc3cc(Cl)c(OC)cc3OC)c2)cc1 (stereo unspecified)	5.54 µM
CCOc1cc2c(cc1OCC)-n1cccc1C(c1ccc(C(C)C)cc1)NC2 (stereo unspecified)	7.22 µM
COc1ccc(OCC(O)CNCCOc2ccccc2OC)c(C(C)(C)C)c1 (stereo unspecified)	11.6 µM
CCCCNc1cccc2c1S(=O)(=O)N(CCCC)CC(COCc1ccccc1)O2 (stereo unspecified)	8.93 µM
Cc1cc(O)c(C(C)C)cc1C1(c2cc(C(C)C)c(O)cc2C)OC(=O)c2ccccc21	9.45 µM
Cn1c(SCC(=O)N2CCCc3ccccc32)nc2ccccc2c1=O	3.46 µM
COc1ccc(-n2ncc(Cl)c(Cl)c2=O)cc1	3.36 µM
O=C(Nc1ccc(Cl)cc1)Nc1ccc(N2CCCC2)c(S(=O)(=O)Nc2ccccc2Cl)c1	5.2 µM
CCC(O)C1CCN(C(=O)c2cc(COc3ccc4ncccc4c3)on2)CC1 (stereo unspecified)	0.505 µM
Cc1ccc(S(=O)(=O)Nc2ccc(O)c3ncccc23)cc1	1.55 µM

Compound	AC50
O=C(NCc1cccnc1)c1ccc(-c2ccc(F)c(F)c2)c2ccoc12	3.48 µM
CCOC(=O)c1c2c(n(C)c1C)C(=O)C(=O)c1ccc(Br)cc1-2	1.01 µM
O=C(NCc1ccc2c(c1)OCO2)c1nc(S(=O)(=O)Cc2ccccc2F)ncc1Cl	5.19 µM
FC(F)(F)c1cccc(NC(=S)NC(c2ccccc2)c2ccccc2)c1	7.17 µM
CCCCCCCNC(=O)C1(CC2CC(c3cccc(Br)c3)=NO2)CCNCC1 (stereo unspecified)	11.7 µM
CC(C)OC(=O)c1ccc(NCc2cc(O)ccc2O)cc1Cl	2.15 µM
CCCCC(=O)NC(c1ccc(N(CC)CC)cc1)c1ccc2cccnc2c1O (stereo unspecified)	1.12 µM
O=C1C(F)=CC(COC(c2ccccc2)(c2ccccc2)c2ccccc2)OC1n1cc(F)c(=O)[nH]c1=O (stereo unspecified)	0.428 µM
O=C(Nc1ccc(Cl)c(Cl)c1)c1cccc(S(=O)(=O)NCc2cccnc2)c1	5.39 µM
COc1ccc(-n2nnnc2-c2cnc(N3CCCC3)nc2C(F)(F)F)cc1	4.75 µM
O=C(CSc1nc(-c2ccco2)cc(C(F)(F)F)n1)Nc1ccc(C(=O)N2CCCCC2)cc1	2.87 µM
CC(C)(C)C(=O)/C(=C/c1ccncc1)n1cncn1	3.27 µM
CCCc1nnc(NC(=O)c2nc(S(=O)(=O)Cc3ccc(C)cc3)ncc2Cl)s1	0.538 µM
O=[N+]([O-])c1cc2c(c(CSc3nnc(Nc4ccccc4)s3)c1)OCOC2	3.62 µM
CCOC(=O)CS(=O)(=O)c1nc(-c2ccc(F)cc2)cc(C(F)(F)F)n1	1.78 µM
Cn1cc([N+](=O)[O-])c(C(=O)Nc2sc3c(c2C#N)CCC3)n1	0.88 µM
CCc1nnc(NC(=O)c2nc(S(=O)(=O)Cc3cccc(C)c3)ncc2Cl)s1	2.51 µM
COc1ccc(NC(=O)CSc2ncccc2C(=O)OC(C)C)cc1OC	4.1 µM
C[C@H]1CN=C(N(C)C)N1CC1CCC(C(C)(C)C)CC1 (stereo partly specified)	2.27 µM
CNC[C@H](CC1CCCCC1)NC[C@H](Cc1ccccc1)NCCC12CC3CC(CC(C3)C1)C2	5.51 µM
Nc1cc2c(cc1Br)[nH]c(=O)c1ccccc12	5.46 µM
COC1CC2C=C(C)C=CC=CC(=O)NC(c3ccccc3)CC=CCCC(O)CC(=O)C2=C1O (stereo unspecified)	0.629 µM
COC(=O)Oc1ccc(/C=C/C(=O)OC(C)C)cc1OC(=O)OC	3.29 µM
O=C(N[C@@H]1C/C=C\C[C@@H](CC(=O)N(CCO)Cc2ccccc2)C(=O)NC[C@H](c2ccccc2)OC1=O)OCC1c2ccccc2-c2ccccc21	7.04 µM
CN(Cc1cccc(Cl)c1Cl)C(=O)c1cccc(S(=O)(=O)N2CCN(Cc3ccccc3)CC2)c1	3.38 µM
Oc1c(C(Nc2ccccn2)c2ccccn2)ccc2cccnc12 (stereo unspecified)	4.36 µM

Compound	AC50
C=C(C)C(=O)O[C@H]1C/C(C)=C\C(=O)/C=C(\C)[C@H](O)[C@@H]2OC(=O)C(=C)[C@@H]21	3.02 µM
COc1ccc(-n2ncc3c(N4CCCCC4)ncnc32)cc1	2.87 µM
O=c1c2ccccc2nc2n1C(CSCc1cccc(C(F)(F)F)c1)CS2 (stereo unspecified)	1.68 µM
C[C@H](O)C#Cc1ccc2c(c1)O[C@@H](CN(C)Cc1ccc(-c3ccccc3)cc1)[C@H](C)CN([C@@H](C)CO)S2(=O)=O	10.3 µM
COc1cccc(CNc2nc(NCC3CC3)nc3ccsc23)c1OC	4.48 µM
CCOc1ccc(N2C(=O)CC(Sc3nnnn3-c3ccccc3)C2=O)cc1 (stereo unspecified)	11.5 µM
O=S(=O)(c1ccc2c(c1)OCCO2)N1CCN(c2ncnc3sccc23)CC1	1.45 µM
CC(C)(C)n1nnnc1C(c1cccs1)N1CCCC2(CCCCC2)C1 (stereo unspecified)	21.7 µM
O=C(c1ccccc1)C(CCC(CN1CCOCC1)C(=O)c1ccccc1)CN1CCOCC1 (stereo unspecified)	12.8 µM
CC(C)(C)C(=O)/C(=C/c1ccc(Cl)cc1)n1cncn1	3.75 µM
COc1ccccc1-c1c(-c2ccc(O)cc2O)n[nH]c1C(F)(F)F	0.708 µM
O=C(Nc1ccc(F)c(F)c1)c1ccc(F)c(S(=O)(=O)N2CCC3(CC2)OCCO3)c1	12.2 µM
COc1ccc(Oc2cc(NC(=O)c3nn(C)cc3[N+](=O)[O-])cc([N+](=O)[O-])c2)cc1	0.813 µM
CN(C)c1ccc(C=Cc2ccnc3c(O)cccc23)cc1	1.43 µM
CC(=O)OCCNc1cc(Sc2nc3ccccc3[nH]2)c2nonc2c1[N+](=O)[O-]	1.86 µM
COc1ccc(COc2ccccc2C(=O)NCc2ccccc2)cc1F	4.76 µM
CSc1ccc(CN(C)C(=O)c2cccc(S(=O)(=O)N3CCN(Cc4ccccc4)CC3)c2)cc1	2.89 µM
CC(Nc1ncnc2ccccc12)c1ccccc1 (stereo unspecified)	0.355 µM
Cc1ccc(C)c(S(=O)(=O)N2CCN(C(=O)C3CCN(c4ncnc5sc(C)c(C)c45)CC3)CC2)c1	2.82 µM
O=C(Nc1ccc(N2CCN(C(=O)c3ccco3)CC2)c(Cl)c1)c1cc2ccccc2o1	5 µM
CS(=O)(=O)c1nc(-c2ccc(Br)cc2)cc(-c2ccccc2)c1C#N	4.72 µM
Cc1ccccc1CS(=O)(=O)c1nnc([C@H](Cc2ccccc2)NC(=O)OC(C)(C)C)o1	1.23 µM
COc1ccc(-c2cc(C(F)(F)F)nc(S(=O)(=O)CCCC(=O)Nc3cccnc3Cl)n2)cc1OC	3.17 µM
O=C1N(c2ccccc2)C[C@@H]2C[C@@H](c3cc4ccccc4o3)N3CCC[C@@]123	0.536 µM
Cn1c(=O)c2c(nc(NCc3ccco3)n2CCc2ccccc2)n(C)c1=O	2.34 µM
O=C(c1n[nH]c(=O)c2ccccc12)N1CCN(C2c3ccccc3-c3ccccc32)CC1	7.69 µM

Compound	AC50
CC1C(OC(=O)CCC(=O)NC(C)(C)CO)O[C@H]2OC3(C)CC[C@H]4[C@H](C)CCC1C24OO3 (stereo partly specified)	0.495 µM
Oc1cccc2cc(Nc3ccccc3)cnc12	0.644 µM
O=C(Nc1ccc([N+](=O)[O-])cc1)C(=O)Nc1cccc(C(=O)O)c1	4.21 µM
Cc1ccc2[nH]c3c(N4CCc5ccccc5C4)ncnc3c2c1	1.18 µM
CCCCCCCCOC(=O)c1cc([N+](=O)[O-])c(Sc2ncnc3nc[nH]c23)c([N+](=O)[O-])c1	2.81 µM
CCOc1ccc(Cn2nnc(C(=O)Nc3cc(OC)cc(OC)c3)c2N)cc1	5.3 µM
COc1ccc(N2CCN(C(=O)CN3CCN(c4nc(-c5ccc(F)cc5)cs4)CC3)CC2)cc1	1.81 µM
CCN1CCN(Cc2ccc(NC(=O)c3ccc(C)c(/C=C/c4cnc(Nc5cc(N6CCNCC6)nc(C)n5)cn4)c3)cc2C(F)(F)F)CC1	9.56 µM
O=C(c1ccc(S(=O)(=O)c2ccccc2Cl)c([N+](=O)[O-])c1)N1CCN(Cc2ccccc2)CC1	5.77 µM
CN(CC(=O)Nc1ccccc1Cl)C(=O)c1cccc(S(=O)(=O)N2CCN(c3ccc(F)cc3)CC2)c1	3.62 µM
CC(=O)N1CCOc2cc(S(=O)(=O)NCc3ccc(F)cc3)c(C)cc21	> 70 µM (inactive)
Cc1ccc(NC(=O)CSc2nn(-c3ccccc3)c(=S)s2)cc1S(=O)(=O)N(C)C	5.82 µM
O=C(c1cc(COc2ccc3ncccc3c2)on1)N1CCCCCC1	0.703 µM
CCOC(=O)Cn1c(=O)c(-c2cc(Br)ccc2N)nc2ccccc21	0.758 µM
Cc1cc(C)nc(SCC(=O)Nc2ccc(N3CCOCC3)c(Cl)c2)n1	1.66 µM
Cc1ccc(S(=O)(=O)N2CCC3(CC2)OCCN3S(=O)(=O)c2c(C)cc(C)cc2C)cc1	6.81 µM
CC(=O)Nc1ccc(NC(=O)c2nc(S(=O)(=O)Cc3ccccc3)ncc2Cl)cc1	0.773 µM
FC(F)(F)c1nnc(-c2ccccc2)nc1Sc1ccc(Cl)cc1	14.7 µM
CC(=O)N1c2ccc(S(=O)(=O)N3CCC(C(=O)N4CCN(c5cccc(C(F)(F)F)c5)CC4)CC3)cc2CC1C (stereo unspecified)	1.28 µM
Cn1nccc1C(=O)NC1CCCc2c1cnn2-c1ccccc1F (stereo unspecified)	0.37 µM
CC(=O)c1cccc(NS(=O)(=O)c2ccc(-c3cnc(C4CC4)o3)cc2)c1	5 µM
C=CCNc1nc(N2CCOCC2)c(C#N)c2c1CN(C)CC2	> 70 µM (inactive)
CCCCOC(=O)c1[nH]c2c(c1C)C(=O)CC(c1cc(OC)c(OC)c(OC)c1)C2 (stereo unspecified)	1.35 µM
